The source of these data is ChEMBL document CHEMBL4118223, “New TRAP1 and Hsp90 chaperone inhibitors with cationic components: Preliminary studies on mitochondrial targeting” (Bioorg Med Chem Lett, 2018).

The source made the active and inactive calls. No cut-off for these calls is given here.

For data set [1], the system named is HCT-116. The data set is described as follows: Antiproliferative activity against human HCT116 cells after 24 hrs by MTT assay. To be noted: HCT-116, 24 h. The data set is classed as functional, cell-based. A general note: Tetrazolium assays rely on reduction of a dye to a coloured formazan, in cell work by metabolically active cells.
Data set [2] concerns the target T1, Heat shock protein 75 kDa, mitochondrial (Homo sapiens, UniProt Q12931).
T1 sequence (Q12931 whole entry): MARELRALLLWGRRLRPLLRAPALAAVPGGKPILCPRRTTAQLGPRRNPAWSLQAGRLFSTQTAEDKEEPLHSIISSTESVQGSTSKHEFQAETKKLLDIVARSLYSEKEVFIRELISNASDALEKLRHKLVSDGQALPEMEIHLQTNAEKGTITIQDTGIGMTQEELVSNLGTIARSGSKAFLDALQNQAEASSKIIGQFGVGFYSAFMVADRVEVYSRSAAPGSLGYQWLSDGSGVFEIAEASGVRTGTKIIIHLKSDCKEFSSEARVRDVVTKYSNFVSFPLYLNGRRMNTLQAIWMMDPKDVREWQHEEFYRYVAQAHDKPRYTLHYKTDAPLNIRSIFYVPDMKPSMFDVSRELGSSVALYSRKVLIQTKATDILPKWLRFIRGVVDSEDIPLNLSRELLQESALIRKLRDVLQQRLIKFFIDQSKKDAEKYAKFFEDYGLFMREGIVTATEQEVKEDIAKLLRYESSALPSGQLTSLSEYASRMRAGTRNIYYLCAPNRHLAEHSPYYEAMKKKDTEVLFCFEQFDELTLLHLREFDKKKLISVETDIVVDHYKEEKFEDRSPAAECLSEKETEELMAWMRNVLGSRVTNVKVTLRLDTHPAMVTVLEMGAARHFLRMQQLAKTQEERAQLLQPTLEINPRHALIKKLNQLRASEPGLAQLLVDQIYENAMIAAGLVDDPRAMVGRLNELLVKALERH
Description: Inhibition of recombinant human N-terminal His6-tagged TRAP1 (60 to 704 residues) ATPase activity expressed in Escherichia coli BL21-CodonPlus-RIL after overnight incubation by BioMol green dye-based assay

In data set [3] the test system is HCT-116. Briefly: Induction of apoptosis in human HCT116 cells at 10 uM after 24 hrs by FITC/Annexin-V/7-AAD staining-based FACS analysis. The data set is classed as functional, cell-based. For orientation: Flow cytometry measures light scatter and fluorescence of single cells or particles in a stream.
Data set [4] in a line: Drug uptake in cytosol of human HCT116 cells at 1 uM after 12 hrs by mass spectrometric analysis. It counts as ADME, subcellular, HCT-116.
The subject of data set [5] is HCT-116. The data set is described as follows: Induction of apoptosis in human HCT116 cells at 1 to 10 uM after 24 hrs by FITC/Annexin-V/7-AAD staining-based FACS analysis. The data set is classed as functional, cell-based.
Data set [6] addresses Heat shock protein HSP 90-alpha (Homo sapiens, UniProt P07900). The data set is described as follows: Inhibition of FITC-geldanamycin binding to recombinant human HSP90alpha expressed in Escherichia coli by fluorescence anisotropy method. Background: In fluorescence polarisation assays a small probe gives low polarisation when free and higher when bound to something large.

Data set [7] can be described thus: Drug uptake in mitochondria of human HCT116 cells at 1 uM after 12 hrs by mass spectrometric analysis. To be noted: hct-116, 12 h. The data set is classed as ADME.
Data set [8] has as its system HCT-116. Briefly: Induction of apoptosis in human HCT116 cells at 0.1 to 10 uM after 24 hrs by FITC/Annexin-V/7-AAD staining-based FACS analysis. It counts as functional, cell-based.

Consider `CCNC(=O)c1noc(-c2cc(C(C)C)c(O)cc2O)c1NC(=O)CCCCC[n+]1ccccc1.[Br-]`, for which the figures for the IC50 (with HCT-116 [1]; in data set [2]) were 7.86 µM and 10 µM, respectively. The outcome with HCT-116 [3] was Active. Besides, the Drug uptake result in data set [4] is on record as “Not Active”.

Turning to `CCNC(=O)c1noc(-c2cc(C(C)C)c(O)cc2O)c1NC(=O)c1ccc(C(=O)NC(=N)N)cc1`, the result in the data set on HCT-116 [5] was Active. The IC50 in the data set with HCT-116 [1] turned out to be 1.32 µM; in data set [6], 0.021 µM. In data set [6], the Kd was 0.0015 µM. For the same compound, the values for the Drug uptake result in data set [7] and in data set [4] were “Active” and “Not Active”, respectively.

Turning to `COc1cccc(-c2cc(F)ccc2[C@H]2Cc3nc(N)nc(C)c3C(=O)N2)n1`, in data set [2], the IC50 amounted to 0.2 µM. Further, the Drug uptake entry in data set [7] is reported as “Not Active”. Also, the result in the data set with HCT-116 [8] was Active.

In turn, `CCNC(=O)c1noc(-c2cc(C(C)C)c(O)cc2O)c1NC(=O)CCN1CCOCC1` gave an IC50 in data set [2] of 20 µM.

Consider `CCNC(=O)c1noc(-c2cc(C(C)C)c(O)cc2O)c1NC(=O)CCCCC[P+](c1ccccc1)(c1ccccc1)c1ccccc1.[Br-]`, for which the IC50 in the data set on HCT-116 [1] was found to be 5.12 µM; in data set [2], 25 µM. Further, in the data set on HCT-116 [3], the outcome was Active. For the same compound, the values for the Drug uptake result in data set [7] and in data set [4] were “Active” and “Not Active”, respectively.

As to `CCNC(=O)c1noc(-c2cc(C(C)C)c(O)cc2O)c1NC(=O)CCCCC(=O)NCCCNCCNCCCN`, the IC50 turned out to be 26.7 µM in the data set with HCT-116 [1] and 5 µM in data set [2]. The Drug uptake entry in data set [7] is “Active”; in data set [4], “Not Active”. In addition, the result with HCT-116 [8] was Active.

Regarding `CCNC(=O)c1noc(-c2cc(C(C)C)c(O)cc2O)c1NC(=O)CCCCCCc1ccc(C(=O)NC(=N)N)cc1`, the IC50 with HCT-116 [1] stood at 6.17 µM; in data set [2], 3 µM. The Drug uptake result in data set [7] was “Active”; in data set [4] it was “Not Active”.

As for `CCNC(=O)c1noc(-c2cc(C(C)C)c(O)cc2O)c1NC(=O)c1ccc(OC)cc1`, the results for the IC50 (with HCT-116 [1]; in data set [2]) were 0.87 µM and 0.4 µM, respectively. Moreover, the Drug uptake result in data set [7] is listed as “Not Active”. The outcome with HCT-116 [8] was Active.

What is called IC50 is the point on the concentration scale where inhibition reaches its midpoint. For orientation: Kd means a measure of binding affinity in units of concentration.
